Data set [1] has as its target T1, CYP2C9 (Homo sapiens, UniProt P11712).
T1 construct: human liver microsomes (BD Gentest); tissue BD Gentest; host or cells: human liver microsomes
Description: CYP2C9 inhibition assay. Format: in vitro ADME. The following applies: human liver microsomes, substrate Luciferin-H; for inhibition at 25 min, 2.2 µM: pH 7.4, probe Luciferin-H (100 μM final), read-out: CYP2C9 % inh @ 2.2 μM. How it is done: (§1) Stock solutions of test compounds were assayed in 96-well format for their ability to inhibit CYP2C9, CYP2D6, or CYP3A4 mediated metabolism of test substrates. Luciferin-H was used as the substrate for CYP2C9; 3-[2-(N,N-diethyl-N-methylammonium)ethyl]-7-methoxy-4-methylcoumarin (AMMC) was used as the substrate for CYP2D6; 7-benzyloxyquiniline (BZQ) was used as the substrate for CYP3A4. For each subtype, positive controls (sulphaphenazole in the case of CYP2C9; quinidine in the case of CYP2D6, ketoconazole in the case of CYP3A4) were used to validate assay results run in duplicate.
(§2) Pre-Incubation Mixture Preparation for CYP2C9 and CYP2D6: A pre-incubation mixture was prepared by combining 100 mM phosphate buffer (9.12 mL; pH 7.4), human liver microsomes (BD Gentest, 240 itt; final concentration: 0.4 mg/mL), and 10 mM nicotinamide adenine dinucleotide phosphate in 65.4 mM MgCl2 hexahydrate (120 μL; final concentration: 125 μM and 818 μM, respectively). To this was mixture is added a ‘regeneration’ mixture (120 μL) of 333 mM glucose-6-phosphate and 40 U/mL glucose-6-phosphate dehydrogenase in 5 mM sodium citrate (final concentration: 4 mM, 0.5 U/mL, and 0.06 mM, respectively).
Substrate Mixture Preparation for CYP2C9: To a solution of 25 mM phosphate buffer, (2.16 mL, pH 7.4) was added 5 mM Luciferin-H (Promega P450 Glo Assay V8792, 240 μL; final solution concentration 0.5 mM, final assay concentration 100 μM).
CYP2C9 Inhibiton Assay: To each well in the assay plate containing varying concentrations of test compound or control compound in DMSO (10 μL) Pre-Incubation Mixture (40 itt) was added to the wells and the assay plate was pre-incubated for 10 minutes at 37° C., with shaking or rocking. CYP2C9 Substrate Mixture (10 μL) was added to all wells and the assay plate was incubated for an additional 25 minutes at 37° C., with shaking or rocking. Final DMSO concentration was 1%. Luciferin-H detection reagent (Promega kit V8792, 50 μL) was added to all wells. The plate was then vortexed at ambient temperature for between 20 minutes and 2 hours, and the luminescence of each well was then read and recorded.

A short description of data set [2]: Rat telemetry protocol, core body temperature. The following applies: core body temperature of rats one hour post dosing, 100 μmol/kg p.o., relative to vehicle. In kind it is in vivo. In outline: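 Male Sprague Dawley rats (225–250 g) with intraperitoneal telemetry transmitters, 2-week recovery. Single oral 100 μmol/kg dose in 10% EtOH/20% Tween-80/70% PEG-400; core body temperature recorded every 15 min over 24 h.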

Data set [3] has as its target T2, CYP2D6 (Homo sapiens, UniProt P10635).
T2 construct: human liver microsomes (BD Gentest); tissue BD Gentest; host or cells: human liver microsomes
Description: in vitro. In kind it is in vitro ADME. The following applies: microsomes; for inhibition at 25 min, 2.2 µM: human, pH 7.4. How it is done: as §1, §2
Substrate Mixture Preparation for CYP2D6: To a solution of 100 mM phosphate buffer, (2.80 mL, pH 7.4) was added 10 mM AMMC in acetonitrile (14 itt; final solution concentration 0.05 mM, final assay concentration 10 μM).
CYP2D6 Inhibiton Assay: To each well in the assay plate containing varying concentrations of test compound or control compound in DMSO (10 μL), Pre-Incubation Mixture (40 μL) was added to the wells and the assay plate was pre-incubated for 10 minutes at 37° C., with shaking or rocking. A pre-read of each well was performed at 390 nm and 460 nm extinction/emission. CYP2D6 Substrate Mixture (10 μL) was added to all wells and the assay plate was incubated for an additional […] at 37° C., with shaking or rocking. Final DMSO concentration was 1%. A post-read of each well was then performed at 390 nm and 460 nm extinction/emission.

Data set [4] can be described thus: Assessment of hemodynamic profile in anesthetized rat. Format: in vivo. The following applies: i.v. infusion 3, 10 and 30 mg/kg/30 minutes/dose, relative to vehicle control group. How it is done: Male Sprague-Dawley rats were anesthetized with Inactin, instrumented, and allowed to stabilize. Following a 30 minute baseline period, test compound was infused via intravenous administration at 3, 10, and 30 mg/kg/30 minutes/dose in a low volume PEG-400 vehicle (1 mL/kg) or 20:40:40 dimethylacetamide:propylene glycol:PEG-400 vehicle (1 mL/kg). A separate group of animals received infusion of vehicle alone. Mean arterial pressure (MAP) and heart rate (HR) were observed and recorded.

T1 sequence (P11712 whole entry): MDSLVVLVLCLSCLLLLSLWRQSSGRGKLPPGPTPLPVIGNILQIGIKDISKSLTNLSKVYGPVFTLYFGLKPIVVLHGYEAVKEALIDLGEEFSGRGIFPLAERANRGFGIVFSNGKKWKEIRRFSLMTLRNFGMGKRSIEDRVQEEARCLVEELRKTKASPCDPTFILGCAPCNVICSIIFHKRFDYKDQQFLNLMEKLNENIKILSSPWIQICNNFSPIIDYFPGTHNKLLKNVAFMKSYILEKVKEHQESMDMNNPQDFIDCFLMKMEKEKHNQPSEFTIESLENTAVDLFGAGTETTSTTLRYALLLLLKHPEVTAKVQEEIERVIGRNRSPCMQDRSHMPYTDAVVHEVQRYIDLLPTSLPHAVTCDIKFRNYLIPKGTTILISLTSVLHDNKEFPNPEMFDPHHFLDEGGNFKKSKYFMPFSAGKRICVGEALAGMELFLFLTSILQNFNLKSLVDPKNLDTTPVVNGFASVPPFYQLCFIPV
T2 sequence (P10635 whole entry): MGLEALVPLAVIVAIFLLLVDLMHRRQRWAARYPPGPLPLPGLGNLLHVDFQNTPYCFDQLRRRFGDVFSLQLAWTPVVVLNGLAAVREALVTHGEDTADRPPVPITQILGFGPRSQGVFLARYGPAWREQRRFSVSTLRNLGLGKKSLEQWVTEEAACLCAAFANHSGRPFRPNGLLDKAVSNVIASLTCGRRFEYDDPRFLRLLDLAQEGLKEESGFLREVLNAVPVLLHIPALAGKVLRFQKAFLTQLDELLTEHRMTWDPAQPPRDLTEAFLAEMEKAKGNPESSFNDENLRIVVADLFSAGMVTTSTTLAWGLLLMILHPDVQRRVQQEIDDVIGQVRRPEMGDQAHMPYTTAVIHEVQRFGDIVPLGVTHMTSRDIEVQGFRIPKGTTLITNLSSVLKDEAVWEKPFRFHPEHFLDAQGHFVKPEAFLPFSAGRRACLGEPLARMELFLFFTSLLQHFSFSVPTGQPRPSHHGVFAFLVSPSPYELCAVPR

Regarding “N-[(4R)-2,2-diethyl-6-fluoro-3,4-dihydro-2H-chromen-4-yl]-N-(3-methylisoquinolin-5-yl)urea [Example 56]”, the “CYP2C9 % inh @ 2.2 μM” value in data set [1] was 20%. In data set [2], the “Δ Temp (° C.)” value amounted to 0.2 °C. For the same molecule, the “CYP2D6 % inh @ 2.2 μM)” value in data set [3] stood at 14%. Further, the “Change in MAP or HR ≧ 15% ?” value in data set [4] is recorded as “No (an observed increase or decrease of less than or equal to 15% in MAP (mean arterial pressure) or HR (heart rate) in the test group of animals relative to the vehicle control group is indicated as “No” in the table)”.

`Cc1cc2c(NC(=O)N[C@@H]3CC(C)(C)Oc4c3ccc(F)c4F)cccc2cn1` [Example 113, N-[(4R)-7,8-difluoro-2,2-dimethyl-3,4-dihydro-2H-chromen-4-yl]-N′-(3-methylisoquinolin-5-yl)urea]: the inhibition at 25 min, 2.2 µM amounted to 7.6% in data set [1] and 0% in data set [3]. Besides, in data set [2], the “Δ Temp (° C.)” value turned out to be 0.0 °C. Further, the “Change in MAP or HR ≧ 15% ?” value in data set [4] is reported as “Yes (An observed increase or decrease of greater than 15% in MAP (mean arterial pressure) or HR (heart rate) in one or more of the animals in the test group relative to the vehicle control group is indicated as “Yes” in the table)”.

On to `Cc1cc2c(NC(=O)N[C@@H]3CC(CF)(CF)Oc4c(F)cc(F)cc43)cccc2cn1` [Example 120, N-[(4R)-6,8-difluoro-2,2-bis(fluoromethyl)-3,4-dihydro-2H-chromen-4-yl]-N′-(3-methylisoquinolin-5-yl)urea], for which the inhibition at 25 min, 2.2 µM is 11% in data set [1] and 6.2% in data set [3]. Besides, the “Δ Temp (° C.)” value in data set [2] is −0.5 °C. Moreover, the “Change in MAP or HR ≧ 15% ?” value in data set [4] is “No (an observed increase or decrease of less than or equal to 15% in MAP (mean arterial pressure) or HR (heart rate) in the test group of animals relative to the vehicle control group is indicated as “No” in the table)”.

Consider `Cc1cc2c(NC(=O)N[C@@H]3CC(CF)(CF)Oc4ccccc43)cccc2cn1` [Example 101, N-[(4R)-2,2-bis(fluoromethyl)-3,4-dihydro-2H-chromen-4-yl]-N′-(3-methylisoquinolin-5-yl)urea], for which the inhibition at 25 min, 2.2 µM in data set [1] and in data set [3] was 11% throughout. In data set [2], the “Δ Temp (° C.)” value is 0.0 °C. Further, the “Change in MAP or HR ≧ 15% ?” value in data set [4] is given as “Yes (An observed increase or decrease of greater than 15% in MAP (mean arterial pressure) or HR (heart rate) in one or more of the animals in the test group relative to the vehicle control group is indicated as “Yes” in the table)”.

Consider `Cc1cc2c(NC(=O)N[C@@H]3CC(C)(C)Oc4cc(C(F)(F)F)ccc43)cccc2cn1` [Example 118, N-[(4R)-2,2-dimethyl-7-(trifluoromethyl)-3,4-dihydro-2H-chromen-4-yl]-N′-(3-methylisoquinolin-5-yl)urea], for which the values for the inhibition at 25 min, 2.2 µM in data set [1] and in data set [3] were 7.8% and 21%, respectively. The “Δ Temp (° C.)” value in data set [2] was determined as 0.0 °C. In addition, in data set [4], the “Change in MAP or HR ≧ 15% ?” value is “Yes (An observed increase or decrease of greater than 15% in MAP (mean arterial pressure) or HR (heart rate) in one or more of the animals in the test group relative to the vehicle control group is indicated as “Yes” in the table)”.

For “N-[(4R)-6,8-difluoro-2,2-dimethyl-3,4-dihydro-2H-chromen-4-yl]-N-(3-methylisoquinolin-5-yl)urea [Example 98]”, the “CYP2C9 % inh @ 2.2 μM” value in data set [1] turned out to be 8.4%. In data set [2], the “Δ Temp (° C.)” value came to 0.0 °C. The “CYP2D6 % inh @ 2.2 μM)” value in data set [3] is 3.7%. Further, in data set [4], the “Change in MAP or HR ≧ 15% ?” value was “Yes (An observed increase or decrease of greater than 15% in MAP (mean arterial pressure) or HR (heart rate) in one or more of the animals in the test group relative to the vehicle control group is indicated as “Yes” in the table)”.

Consider `CC1(C)C[C@@H](NC(=O)Nc2cccc3cnccc23)c2cc(F)ccc2O1` [Example 5, N-[(4R)-6-fluoro-2,2-dimethyl-3,4-dihydro-2H-chromen-4-yl]-N′-isoquinolin-5-ylurea], for which the inhibition at 25 min, 2.2 µM in data set [1] came to 55%; in data set [3], 100%. Further, the “Δ Temp (° C.)” value in data set [2] was −0.2 °C. The “Change in MAP or HR ≧ 15% ?” value in data set [4] was “Yes (An observed increase or decrease of greater than 15% in MAP (mean arterial pressure) or HR (heart rate) in one or more of the animals in the test group relative to the vehicle control group is indicated as “Yes” in the table)”.

As for `Cc1cc2c(NC(=O)N[C@@H]3CC(CF)(CF)Oc4cc(Cl)ccc43)cccc2cn1` [Example 84, N-[(4R)-7-chloro-2,2-bis(fluoromethyl)-3,4-dihydro-2H-chromen-4-yl]-N′-(3-methylisoquinolin-5-yl)urea], the inhibition at 25 min, 2.2 µM in data set [1] worked out at 3.7%; in data set [3] it was 49%. Also, the “Δ Temp (° C.)” value in data set [2] came out at 0.0 °C. Moreover, the “Change in MAP or HR ≧ 15% ?” value in data set [4] is reported as “No (an observed increase or decrease of less than or equal to 15% in MAP (mean arterial pressure) or HR (heart rate) in the test group of animals relative to the vehicle control group is indicated as “No” in the table)”.

Consider `Cc1cc2c(NC(=O)N[C@@H]3CC(C)(C)Oc4c3ccc(F)c4Cl)cccc2cn1` [Example 110, N-[(4R)-8-chloro-7-fluoro-2,2-dimethyl-3,4-dihydro-2H-chromen-4-yl]-N′-(3-methylisoquinolin-5-yl)urea], for which the inhibition at 25 min, 2.2 µM in data set [1] was 13%; in data set [3], 1.4%. Also, in data set [2], the “Δ Temp (° C.)” value was −1.1 °C. Also, the “Change in MAP or HR ≧ 15% ?” value in data set [4] was “Yes (An observed increase or decrease of greater than 15% in MAP (mean arterial pressure) or HR (heart rate) in one or more of the animals in the test group relative to the vehicle control group is indicated as “Yes” in the table)”.

In the case of “N-[(4R)-2,2-diethyl-8-fluoro-3,4-dihydro-2H-chromen-4-yl]-N-(3-methylisoquinolin-5-yl)urea [Example 62]”, in data set [1], the “CYP2C9 % inh @ 2.2 μM” value is 22%. The “Δ Temp (° C.)” value in data set [2] is −0.5 °C. In data set [3], the “CYP2D6 % inh @ 2.2 μM)” value turned out to be 9.1%. Also, the “Change in MAP or HR ≧ 15% ?” value in data set [4] is “No (an observed increase or decrease of less than or equal to 15% in MAP (mean arterial pressure) or HR (heart rate) in the test group of animals relative to the vehicle control group is indicated as “No” in the table)”.

For the molecule `Cc1cc2c(NC(=O)N[C@@H]3CC(C)(C)Oc4c(F)cccc43)cccc2cn1` [Example 119, N-[(4R)-8-fluoro-2,2-dimethyl-3,4-dihydro-2H-chromen-4-yl]-N′-(3-methylisoquinolin-5-yl)urea], the results for the inhibition at 25 min, 2.2 µM in data set [1] and in data set [3] were 2.1% and 8.7%, respectively. The “Δ Temp (° C.)” value in data set [2] is 0.0 °C. The “Change in MAP or HR ≧ 15% ?” value in data set [4] is “Yes (An observed increase or decrease of greater than 15% in MAP (mean arterial pressure) or HR (heart rate) in one or more of the animals in the test group relative to the vehicle control group is indicated as “Yes” in the table)”.

The values above are taken from US8604053B2, “TRPV1 antagonists” (AbbVie Inc., priority 2008, dated 2013).
